In paper PMC6738096 (British Journal of Cancer, 2019):
“Also recorded” adds a separate entry of the source.

Experiment: Phase 1 dose-escalation trial: safety and tolerability (TEAEs, SAEs, DLT, MTD, RP2D)
Conditions: for Patients with any AE leading to death: none deemed related to treatment
[1] = safety population, regardless of causality

Procedure: Endpoints included the incidence of DLTs (defined in the ‘Safety' section) in the first 28-day treatment cycle (cycle 1), the frequency and severity of adverse events (AEs) and serious AEs (SAEs) and changes in laboratory values, vital signs, physical examination findings and Eastern Cooperative Oncology Group (ECOG) performance status (PS).
The starting dose was 30 mg, which was determined by review of nonclinical toxicokinetic assessments. A treatment cycle comprised 28 days in the absence of disease progression or unacceptable toxicity. Patients received starting doses ranging from 30 mg once every 24 hours (Q24h) to 480 mg Q24h, and escalation proceeded based on a 3 + 3 design.
The subsequent cohort started at a reduced dosing regimen. Additional dosing schedules were once every 12 hours (Q12h) at 30 and 60 mg and once every 8 hours (Q8h) at 20 and 40 mg.
Toxicities were graded and recorded according to NCI CTCAE version 4.03. Patients were assessed for DLTs during the first 28-day cycle. A DLT was defined as any grade ≥ 3 nonhaematologic toxicity, according to NCI CTCAE version 4.03.

Q: Which results are given for `CC(C)NC(=O)[C@H]1CC[C@@H](n2c(NC(=O)c3ccc(F)cc3)nc3ccc(CN4CCC(C(C)(C)O)CC4)cc32)CC1` [TSR-011]?
A: SAE: Bone pain (40 mg Q8h (n = 31)): 0 n (%); SAE: Deep-vein thrombosis (40 mg Q8h (n = 31)): 0 n (%); SAE: Dehydration (40 mg Q8h (n = 31)): 0 n (%); SAE: Disease progression (40 mg Q8h (n = 31)): 2 (6.5) n (%); SAE: Dyspnoea (40 mg Q8h (n = 31)): 0 n (%); SAE: Gastric haemorrhage (40 mg Q8h (n = 31)): 0 n (%); SAE: Gastric ulcer helicobacter (40 mg Q8h (n = 31)): 1 (3.2) n (%); SAE: Infection (40 mg Q8h (n = 31)): 1 (3.2) n (%); SAE: Lower respiratory tract infection (40 mg Q8h (n = 31)): 1 (3.2) n (%); SAE: Mastoiditis (40 mg Q8h (n = 31)): 0 n (%); SAE: Mental impairment (40 mg Q8h (n = 31)): 0 n (%); SAE: Metastases to the central nervous system (40 mg Q8h (n = 31)): 1 (3.2) n (%); SAE: Pericardial effusion (40 mg Q8h (n = 31)): 1 (3.2) n (%); SAE: Pleural effusion (40 mg Q8h (n = 31)): 1 (3.2) n (%); SAE: Pneumonia (40 mg Q8h (n = 31)): 1 (3.2) n (%); SAE: Portal vein thrombosis (40 mg Q8h (n = 31)): 0 n (%); SAE: Seizure (40 mg Q8h (n = 31)): 1 (3.2) n (%); SAE: Subarachnoid haemorrhage (40 mg Q8h (n = 31)): 1 (3.2) n (%); Total number of TEAEs (40 mg Q8h (n = 31)): 167; Total number of treatment-emergent SAEs (40 mg Q8h (n = 31)): 16; Patients with any AE leading to death (40 mg Q8h (n = 31)): 2 (6.5) Number (%); Grade ≥ 3 pneumonitis or hypoxia (40 mg TID): no grade ≥ 3 pneumonitis or hypoxia was observed; Grade 3 ECG QTc prolongation within the DLT period (320 mg Q24h cohort, an additional patient determined retrospectively): One patient; DLTs (30-, 60-, 120- and 240-mg IR Q24h cohorts): none of the patients experienced DLTs; Maximum tolerated dose (MTD) (320- and 480-mg Q24h doses): exceeded the maximum tolerated dose; also recorded: exceeded the MTD; Grade 3 QTc prolongation (480-mg Q24h cohort): two of four patients; Drug-related TEAE: Abnormal dreams (All patients (N = 72)): 2 (2.8) n (%); Drug-related TEAE: Anaemia (All patients (N = 72)): 2 (2.8) n (%); Drug-related TEAE: Asthenia (All patients (N = 72)): 2 (2.8) n (%); Drug-related TEAE: Constipation (All patients (N = 72)): 5 (6.9) n (%); Drug-related TEAE: Decreased appetite (All patients (N = 72)): 4 (5.6) n (%); Drug-related TEAE: Diarrhoea (All patients (N = 72)): 3 (4.2) n (%); Drug-related TEAE: Dysaesthesia (All patients (N = 72)): 2 (2.8) n (%); Drug-related TEAE: Dysgeusia (All patients (N = 72)): 3 (4.2) n (%); Drug-related TEAE: Electrocardiogram QTc prolonged (All patients (N = 72)): 12 (16.7) n (%); Drug-related TEAE: Fatigue (All patients (N = 72)): 4 (5.6) n (%); Drug-related TEAE: Headache (All patients (N = 72)): 3 (4.2) n (%); Drug-related TEAE: Hot flush (All patients (N = 72)): 2 (2.8) n (%); Drug-related TEAE: Increased transaminases (All patients (N = 72)): 2 (2.8) n (%); Drug-related TEAE: Insomnia (All patients (N = 72)): 2 (2.8) n (%); Drug-related TEAE: Myalgia (All patients (N = 72)): 2 (2.8) n (%); Drug-related TEAE: Nausea (All patients (N = 72)): 3 (4.2) n (%); Drug-related TEAE: Peripheral oedema (All patients (N = 72)): 3 (4.2) n (%); Drug-related TEAE: Rash (All patients (N = 72)): 2 (2.8) n (%); Drug-related TEAE: Vomiting (All patients (N = 72)): 4 (5.6) n (%); Grade 3 TEAE: Anaemia (All patients (N = 72)): 5 (6.9) n (%); Grade 3 TEAE: Ascites (All patients (N = 72)): 2 (2.8) n (%); Grade 3 TEAE: Asthenia (All patients (N = 72)): 3 (4.2) n (%); Grade 3 TEAE: Dyspnoea (All patients (N = 72)): 3 (4.2) n (%); Grade 3 TEAE: Electrocardiogram QTc prolonged (All patients (N = 72)): 4 (5.6) n (%); Grade 3 TEAE: Fatigue (All patients (N = 72)): 2 (2.8) n (%); Grade 3 TEAE: Metastases to the central nervous system (All patients (N = 72)): 2 (2.8) n (%); Patients with any TEAE (All patients (N = 72)): 70 (97.2) Number (%); Patients with any TEAE leading to treatment discontinuation (All patients (N = 72)): 11 (15.3) Number (%); Patients with any serious TEAE (All patients (N = 72)): 28 (38.9) Number (%); Patients with any study drug-related TEAE (All patients (N = 72)): 40 (55.6) Number (%); Patients with ≥ 1 treatment-emergent SAE (All patients (N = 72)): 28 (38.9) n (%); SAE class: Blood and lymphatic system disorders (All patients (N = 72)): 2 (2.8) n (%); SAE class: Cardiac disorders (All patients (N = 72)): 1 (1.4) n (%); SAE class: Gastrointestinal disorders (All patients (N = 72)): 5 (6.9) n (%); SAE class: General disorders and administration-site conditions (All patients (N = 72)): 7 (9.7) n (%); SAE class: Hepatobiliary disorders (All patients (N = 72)): 1 (1.4) n (%); SAE class: Infections and infestations (All patients (N = 72)): 5 (6.9) n (%); SAE class: Metabolism and nutrition disorders (All patients (N = 72)): 1 (1.4) n (%); SAE class: Musculoskeletal and connective tissue disorders (All patients (N = 72)): 1 (1.4) n (%); SAE class: Neoplasms benign, malignant and unspecified (including cysts and polyps) (All patients (N = 72)): 3 (4.2) n (%); SAE class: Nervous system disorders (All patients (N = 72)): 8 (11.1) n (%); SAE class: Respiratory, thoracic and mediastinal disorders (All patients (N = 72)): 4 (5.6) n (%); SAE class: Vascular disorders (All patients (N = 72)): 1 (1.4) n (%); SAE: Abdominal pain (All patients (N = 72)): 1 (1.4) n (%); SAE: Anaemia (All patients (N = 72)): 2 (2.8) n (%); SAE: Asthenia (All patients (N = 72)): 1 (1.4) n (%); SAE: Basal cell carcinoma (All patients (N = 72)): 1 (1.4) n (%); SAE: Bone pain (All patients (N = 72)): 1 (1.4) n (%); SAE: Deep-vein thrombosis (All patients (N = 72)): 1 (1.4) n (%); SAE: Dehydration (All patients (N = 72)): 1 (1.4) n (%); SAE: Disease progression (All patients (N = 72)): 6 (8.3) n (%); SAE: Dyspnoea (All patients (N = 72)): 3 (4.2) n (%); SAE: Gastric haemorrhage (All patients (N = 72)): 1 (1.4) n (%); SAE: Gastric ulcer helicobacter (All patients (N = 72)): 1 (1.4) n (%); SAE: Infection (All patients (N = 72)): 1 (1.4) n (%); SAE: Lower respiratory tract infection (All patients (N = 72)): 1 (1.4) n (%); SAE: Mastoiditis (All patients (N = 72)): 1 (1.4) n (%); SAE: Mental impairment (All patients (N = 72)): 2 (2.8) n (%); SAE: Metastases to the central nervous system (All patients (N = 72)): 2 (2.8) n (%); SAE: Pericardial effusion (All patients (N = 72)): 1 (1.4) n (%); SAE: Pleural effusion (All patients (N = 72)): 1 (1.4) n (%); SAE: Pneumonia (All patients (N = 72)): 1 (1.4) n (%); SAE: Portal vein thrombosis (All patients (N = 72)): 1 (1.4) n (%); SAE: Seizure (All patients (N = 72)): 2 (2.8) n (%); SAE: Subarachnoid haemorrhage (All patients (N = 72)): 1 (1.4) n (%); Total number of TEAEs (All patients (N = 72)): 621; Total number of treatment-emergent SAEs (All patients (N = 72)): 49; Patients with any AE leading to death (All patients (N = 72)): 6 (8.3) Number (%); Most common grade 3–4 TEAEs, patients (RP2D 40 mg Q8h): 3.2–6.5%; Recommended phase 2 dose (RP2D) (every 8 hours (Q8h, TID), IR): 40 mg; Grade 3 TEAEs, patients (safety population): 51.4%; Grade 4 TEAE of anaemia (safety population): One patient; SAE disease progression, patients (safety population): 8.3%; Study drug-related SAE, patients (safety population): 1.4%; Study drug-related TEAEs, patients (safety population): 55.6%; TEAEs leading to study drug discontinuation, patients (safety population): 15.3%; TEAEs of grade 1 severity (safety population): 64 % of events; Treatment-emergent SAEs, patients (safety population): 38.9%; Patients with ≥ 1 TEAE (safety population (N = 72)): 97.2%; TEAE QTc prolongation, patients [1]: 18.1%; TEAE anaemia, patients [1]: 15.3%; TEAE asthenia, patients [1]: 15.3%; TEAE class gastrointestinal disorders, patients [1]: 61.1%; TEAE class general disorders and administration-site conditions, patients [1]: 50.0%; TEAE constipation, patients [1]: 19.4%; TEAE decreased appetite, patients [1]: 15.3%; TEAE diarrhoea, patients [1]: 18.1%; TEAE fatigue, patients [1]: 19.4%; TEAE headache, patients [1]: 15.3%; TEAE vomiting, patients [1]: 18.1%
